Laboratory results as given in patent US12102685B2, “Immodulator peptides covalently modified with small molecules” (priority 2020, dated 2024).

Key:
[1] = test system: genes associated with oxidative stress in dorsal root ganglia; assay: qRT-PCR of dorsal root ganglia 14 days after burn; format: in vivo, Sprague Dawley rats; details: DRG 14 days after burn, sham = 1
Excerpt: Survivors of severe burns suffer lifetime neuroinflammatory consequences manifested by higher incidence of major depression and neurodegenerative disease. […] Nephrilin's mechanism of action appears to involve protection from excessive oxidative stress. Using quantitative reverse transcriptase polymerase chain reaction (qRT-PCR) amplification of transcripts in total RNA extracted from dorsal root ganglia (DRG) of male rats 14 days after exposure to thermal insult, we query the relative levels of expression of 34 genes believed to be associated with oxidative stress biology in the CNS. […] This subset analysis of DRG from a previously published study (n=3 per group) is associated with the following effects in the study (Table x7A):
In this study, using quantitative reverse transcriptase polymerase chain reaction (qRT-PCR) amplification of transcripts in total RNA extracted from dorsal root ganglia of male rats 14 days after exposure to thermal insult, the relative levels of expression of 34 genes believed to be associated with oxidative stress biology in the CNS were queried, with an emphasis on astrogliosis, immunosuppression and mitochondrial homeostasis. The 34 genes studied were selected based on their known implication in the above processes, as described in the scientific literature. Dorsal root ganglia (DRG) were dissected from male adult Sprague Dawley rats (300 gm, Charles River Laboratories, Wilmington, MA, USA), three randomly selected animals in each treatment group were used (Group 1:sham; Group 2: burn+vehicle; Group 3: burn+IM3N1) and total RNA was extracted from each pool using the Rneasy Midi Kit (Qiagen, Germantown, MD). Yield was ˜30 ug RNA per pool and A260/A280 ratios were between 1.87-2.04 in all cases. The high quality of each RNA prep was further confirmed by electrophoresis (using Eukaryote Total RNA Nano). For quantitative reverse transcriptase polymerase chain reaction (qRT-PCR) RNAs were diluted in RNase/DNase free water and aliquoted into wells in triplicate. Approximately 100 ng of RNA was used per well. A one step qPCR method was performed using Luna Universal One-Step RT-qPCR kit (New England Biolabs, Ipswich, MA) containing reverse transcriptase enzyme mix. Primer pairs for each gene were synthesized for the SYBR assay. The following standard qPCR cycling conditions were used: 55C for 10′ (for RT), 95C for 1′ followed by 40 cycles at 95C for 10 s. 58C for 30 s. Background was set at 3-10 cycles and the threshold was set at 0.02 for all runs. Ct values were collected and analyzed using the “delta-delta Ct” method. Transcript data for each gene are shown relative to GAPDH, a house-keeping gene. Sham group value was set to 1. Gene groups: [A] astrocyte activation; [B] MDSC-mediated immunosuppression; [C] Mitochondrial homeostasis; [D] Downstream effects of oxidative stress;

rat scald model = assay: Rat scald model, nephrilin plus or minus metal (x5A); format: in vivo, Sprague Dawley rats; details: male rats, burn, 4 mg/kg sc once daily days 1-7
Experimental: Experiment x5A. Nephrilin peptide (IM3N1) is a designed inhibitor of Rictor complex (also known as mTORC2), an evolutionarily conserved assembly believed to modulate responses to cellular stress. […] This study explores the effect of nephrilin plus iron formulations on clinically relevant outcomes in the rat scald model. Animals were treated with nephrilin by subcutaneous bolus injection on days 1-7 post-burn. Equimolar ferric iron in the formulation improved the positive systemic effects of nephrilin on kidney function, glycemic control, oxidative stress, early hyperinflammation, late inflammasome activation, hyperangiogenesis and body mass, all variables previously shown to bear upon clinically relevant burn injury outcomes. The rat scald model and measurement of clinically relevant variables are disclosed in U.S. Pat. No. 10,369,191. Adult Sprague Dawley rats of both sexes (250-300 gm, Charles River Laboratories, Wilmington, MA, USA) were injected with nephrilin peptide plus or minus equimolar metal (zinc, ferrous iron or ferric iron) once daily by subcutaneous bolus injection, days 1-7; Treatment group sizes were (n=8) for each sex unless otherwise indicated: group S=sham-treated; group B=burn+vehicle; group N1=burn+4 mg/kg nephrilin; group N1/Zn2=burn+4 mg/kg nephrilin/zinc chloride; group N1/Fe2=burn+4 mg/kg nephrilin/ferrous sulphate; groups N1/Fe3 (2, 4 or 8)=burn+2, 4, or 8 mg/kg nephrilin/equimolar ferric chloride. The first dose was administered after completion of the scald procedure. Injection volume was 400 uL. Control animals received the same volume of vehicle.
To make global comparisons of treatment efficacy, we converted values to z-scores. All scores within an efficacy class were averaged, allowing allocation of equal weight to efficacy classes. A composite z-score (average z score across all 7 effect classes) is shown in the last row of the table. This allows direct comparison of efficacy across treatment groups. The sham treatment involves manipulating the animals exactly as in the burn group, but without the burn treatment. The efficacy value for the sham (0.82) is thus the positive control. The negative control is the Burn+vehicle group (−0.61). […] Compared to vehicle or nephrilin treatment alone (−0.31), nephrilin with ferric iron (0.27) is at least twice as efficacious overall. Male rats in the scald model were exposed to vehicle, 2, 4 and 8 mg/kg nephrilin complexed with ferric iron.

“RGVTEDYLRLETLVQKVVSKGFYKKKQCRPSKGRKRGFCW [IM3N1]” was tested, and the “GFAP transcript relative to GAPDH” value ([1]; [A] astrocyte activation, IM3N1 4 mg/kg sc 7 days) was 2.40, the “AQP4 transcript relative to GAPDH” value ([1]; [A]) was 0.59 and the “CTGF transcript relative to GAPDH” value ([1]; [A]) was 1.61. For the same sequence, the “GALANIN transcript relative to GAPDH” value ([1]; [A]) was 18.50, the “NPY transcript relative to GAPDH” value ([1]; [A]) was 29.50 and the “Pi16 transcript relative to GAPDH” value ([1]; [A]) was 2.40. For the same sequence, the “S100A9 transcript relative to GAPDH” value ([1]; [A]) was 5.01, the “SLC7A11 transcript relative to GAPDH” value ([1]; [B] MDSC-mediated immunosuppression) was 4.78 and the “ARG1 transcript relative to GAPDH” value ([1]; [B]) was 3.09. The “CCL2 transcript relative to GAPDH” value ([1]; [B]) was 3.17, the “CD63 transcript relative to GAPDH” value ([1]; [B]) was 1.88 and the “NRF2 transcript relative to GAPDH” value ([1]; [B]) was 1.29. The “TFAM transcript relative to GAPDH” value ([1]; [C] Mitochondrial homeostasis) was 1.14, the “ACMSD transcript relative to GAPDH” value ([1]; [C]) was 0.97 and the “BOK transcript relative to GAPDH” value ([1]; [C]) was 1.10. The “FIS1 transcript relative to GAPDH” value ([1]; [C]) was 0.90, the “GLUL transcript relative to GAPDH” value ([1]; [C]) was 1.53 and the “HCRTR1 transcript relative to GAPDH” value ([1]; [C]) was 1.42. The “MFN2 transcript relative to GAPDH” value ([1]; [C]) was 1.48, the “NOX2 transcript relative to GAPDH” value ([1]; [C]) was 2.07 and the “NOX4 transcript relative to GAPDH” value ([1]; [C]) was 6.57. The “OXR1 transcript relative to GAPDH” value ([1]; [C]) was 1.04, the “PINK1 transcript relative to GAPDH” value ([1]; [C]) was 1.35 and the “PPARGC1A transcript relative to GAPDH” value ([1]; [C]) was 1.00. The “RAC1 transcript relative to GAPDH” value ([1]; [C]) was 1.00, the “SHC1 transcript relative to GAPDH” value ([1]; [C]) was 2.34 and the “SLC23A2 transcript relative to GAPDH” value ([1]; [C]) was 1.47. The “STEAP4 transcript relative to GAPDH” value ([1]; [C]) was 1.77, the “UCP2 transcript relative to GAPDH” value ([1]; [C]) was 1.22 and the “PLSCR1 transcript relative to GAPDH” value ([1]; [D] Downstream effects of oxidative stress) was 2.30. The “BACE1 transcript relative to GAPDH” value ([1]; [D]) was 1.42, the “SLC12A2 transcript relative to GAPDH” value ([1]; [D]) was 1.59 and the “SLC12A5 transcript relative to GAPDH” value ([1]; [D]) was 1.38. The “1: early inflammation (24-hr plasma IL-6)” value (rat scald model) was 50.6 ± 6.1 pg/mL, the “2a: 14-day plasma inflammasome marker IL18” value (rat scald model) was 178.1 ± 19.3 pg/mL and the “2b: 14-day plasma inflammasome marker IL1b” value (rat scald model) was 124.3 ± 132 pg/mL. For the same sequence, the “3a: 14-day plasma hyperangiogenesis marker VEGF-A” value (rat scald model) was 56.1 ± 11.7 pg/mL, the “3b: 14-day plasma hyperangiogenesis marker CCL5” value (rat scald model) was 609.7 ± 283 pg/mL and the “3c: 14-day plasma hyperangiogenesis marker CXCL5” value (rat scald model) was 1910 ± 380 pg/mL. The “4: glycemic control, 14-day GTT (AUC)” value (rat scald model) was 139.3 ± 48.6 mg·dL·h, the “5: kidney function, 14-day plasma creatinine” value (rat scald model) was 0.34 ± 0.13 mg/dL and the “6: systemic oxidative stress, 14-day plasma OHDG” value (rat scald model) was 585 ± 137 pg/mL. For the same sequence, the “7: weight loss (slope)” value (rat scald model) was 2.32 ± 1.01, the “3d: hyperangiogenesis marker PctRedPix” value (rat scald model) was 16.51 ± 3.02 and the “Avg: composite z-score (average z score across all 7 effect classes)” value (rat scald model; listed as N1, 4 mg/kg) was −0.31 ± 0.35. For the same sequence, the “Avg: composite z-score (average z score across all 7 effect classes)” value (rat scald model; listed as nephrilin, 4 mg/kg) was −0.31.
